From paper PMC3325965, “Structural Basis of the Chromodomain of Cbx3 Bound to Methylated Peptides from Histone H1 and G9a” (PLoS ONE, 2012) come the findings set out here.

Square brackets hold non-standard residues; d marks the D form. Peptide text beside a SMILES is read from it. Lys(Me3) = C[N+](C)(C)CCCC[C@H](N)C(=O)O; Lys(Me2) = CN(C)CCCC[C@H](N)C(=O)O; Lys(Me) = CNCCCC[C@H](N)C(=O)O

This test deals with T1, human Cbx3 chromodomain (Homo sapiens, UniProt Q13185).
T1 construct: The chromodomain of Cbx3 (29–86) was subcloned into a pET-28a-MHL vector; His tag (TEV-cleavable, pET-28a-MHL) (N, cleaved yes); made in house
As to the kind of experiment: Isothermal titration calorimetry (ITC) of methylated peptides binding to Cbx3 chromodomain. To be noted: Cbx3 chromodomain (residues 29–86), 60 µl of peptide solution (1–2 mM) injected into cell with 40–100 mM protein, 20 mM Tris–HCl, pH 7.5, 150 mM NaCl, one-site binding model. More on the design: key to Kd peptide: N/B: No binding was detected. An excerpt:
Chromodomain has been identified to be a methyl-lysine binding motif involved in transcription regulation, [28]. Many chromodomain-containing proteins, such as HP1 proteins and Polycomb group proteins, were reported to recognize methylated histone tails, [13], [17], [29]. Besides methylated histone H3K9, Cbx3, also known as HP1γ, can also bind to methylated Lys26 of histone H1 and methylated Lys185 of G9a, [22], [23]. To elucidate the binding affinity of Cbx3 chromodomain to these two methylated sites, isothermal titration calorimetry (ITC) assay was performed using histone H1K26 and G9aK185 peptides bearing different lysine methylation states as substrates. […] (Table 1).
Isothermal titration calorimetry measurements were performed as reported previously. Experiments were carried out by injecting 60 µl of peptide solution (1–2 mM) into a sample cell containing […] protein of Cbx3 chromodomain in 20 mM Tris–HCl, pH 7.5, 150 mM NaCl. The ITC measurements were fit to a one-site binding model using Origin Software (MicroCal Inc.)

T1 sequence (Q13185 29-86): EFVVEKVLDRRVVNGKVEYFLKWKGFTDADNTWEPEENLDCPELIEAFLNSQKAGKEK

On to “TPVKKKARK^26SAG [H1.4(18–29) unmodified, histone H1.4 peptide, residues 18–29, without modification]”, for which the Kd peptide result is on record as “N/B ^*”. Moreover, the Kd peptide result (listed as H1K26) is recorded as “did not exhibit detectable binding”. As for “KVHRARK^185TMSKP [G9a(179–190) unmodified, histone methyltransferase G9a peptide, residues 179–190, without modification]”, the Kd peptide result is on record as “N/B”. Also, the Kd peptide result (listed as G9aK185) is listed as “did not exhibit detectable binding”. In turn, `CSCC[C@H](NC(=O)[C@@H](NC(=O)[C@H](CCCCN(C)C)NC(=O)[C@H](CCCNC(=N)N)NC(=O)[C@H](C)NC(=O)[C@H](CCCNC(=N)N)NC(=O)[C@H](Cc1c[nH]cn1)NC(=O)[C@@H](NC(=O)[C@@H](N)CCCCN)C(C)C)[C@@H](C)O)C(=O)N[C@@H](CO)C(=O)N[C@@H](CCCCN)C(=O)N1CCC[C@H]1C(=O)O` [G9a(179–190) me2] (H-KVHRAR[Lys(Me2)]TMSKP-OH) registered a Kd of 9 µM.

With `CNCCCC[C@H](NC(=O)[C@H](CCCNC(=N)N)NC(=O)[C@H](C)NC(=O)[C@H](CCCNC(=N)N)NC(=O)[C@H](Cc1c[nH]cn1)NC(=O)[C@@H](NC(=O)[C@@H](N)CCCCN)C(C)C)C(=O)N[C@H](C(=O)N[C@@H](CCSC)C(=O)N[C@@H](CO)C(=O)N[C@@H](CCCCN)C(=O)N1CCC[C@H]1C(=O)O)[C@@H](C)O` [G9a(179–190) me1] (H-KVHRAR[Lys(Me)]TMSKP-OH), the Kd came out at 28 µM. As for “TPVKKKARK^26SAG [H1.4(18–29) me1, histone H1.4 peptide, residues 18–29, mono-methylated at Lys26]”, the Kd peptide result is listed as “N/B”. On to `CSCC[C@H](NC(=O)[C@@H](NC(=O)[C@H](CCCC[N+](C)(C)C)NC(=O)[C@H](CCCNC(=N)N)NC(=O)[C@H](C)NC(=O)[C@H](CCCNC(=N)N)NC(=O)[C@H](Cc1c[nH]cn1)NC(=O)[C@@H](NC(=O)[C@@H](N)CCCCN)C(C)C)[C@@H](C)O)C(=O)N[C@@H](CO)C(=O)N[C@@H](CCCCN)C(=O)N1CCC[C@H]1C(=O)O` [G9a(179–190) me3] (H-KVHRAR[Lys(Me3)]TMSKP-OH), for which the Kd is 14 µM.
